Usually zone of inhibition stands for the extent of the growth-free halo in a diffusion test. Higher therefore signals wide suppression of growth. The term MIC denotes the lowest concentration found to suppress growth. Read a low MIC as a more susceptible organism.

These results are taken from patent publication US20090275667A1, “USE OF ALLICIN AS PRESERVATIVE, AS DISINFECTANT, AS ANTIMICROBIAL OR AS BIOCIDAL AGENT” (Stone Island Holdings Ltd, priority 2003, published 2009).

Type in all cases: cell-based
For assay [1], the system named is Paenibacillus larvae subsp. pulvifaciens. Put plainly: Disk diffusion test (Kirby-Bauer), zone of inhibition. Particulars: 6 mm paper disc containing 5 μg of tylosin. The protocol:
(§1) Allicin (Allisure™ Liquid) was tested against bacterial and fungal pathogens using a standard disk diffusion method (per Norrell & Messley). The aliquots of bacterial or fungal spores (100 μl of approximately 10^8-10^9 spores/ml) were plated on Mueller-Hinton agar medium, 4.0 mm depth. The 6 mm paper discs containing 250 μg of allicin or 5 μg of tylosin (positive control) were placed in the center of each plate. Plates were incubated at 33° C. and 6% CO2 and a zone of inhibition was measured 24 h, 48 h or 76 h post inoculation depending on the microbial species. All experiments were replicated at least three times.
Background: A growth-free zone around the sample is the usual read-out of agar diffusion tests.

The next assay relates to Ascosphaera apis. Described as above. Particulars: 6 mm paper disc containing 5 μg of tylosin. The protocol: as §1
A further assay deals with Ascosphaera aggregata. Described as above. The note with it: 6 mm paper disc containing 5 μg of tylosin. The protocol: as §1
The subject of assay [2] is Paenibacillus larvae subsp. larvae. The assay is described as above. The note with it: 6 mm paper disc containing 5 μg of tylosin. The protocol: as §1
Assay [3] deals with Paenibacillus larvae subsp. pulvifaciens. Put plainly: MIC by broth microdilution, bee pathogens. The note with it: range 1000 ppm to 0.25 ppm. From the text: (§2) We tested allicia (Allisure™ Liquid) activity against several species of entomopathogenic bacteria (Paenibacillus larvae subsp. larvae, Paenibacillus larvae subsp. pulvifaciens) and fungi (Ascosphaera apis and Ascosphaera aggregata) using broth microdilution method to determine minimum inhibitory concentration (MIC) and the agar diffusion test (Kirby-Bauer) to determine zone of inhibition. Bacterial spores were isolated from the diseased honey bee larval samples. A small aliquot of heat-treated bacterial spores was suspended in 100 μl of phosphate buffered saline-pH 7.2 (PBS) and plated on semi-selective J. Agar medium, containing Nalidixic and Pipemidic acid (Alippi, A M (1995) Detection of Bacillus larvae spores in Argentinian honeys by using a semi-selective medium. Microbiologia 1995 11(3): 343-50; and Govan, V A; Allsopp, M H; Davison, S A (1999) PCR Detection Method for Rapid Identification of Paenibacillus larvae. Applied and Environmental Microbiology 65(5): 2243-2245.
(§3) The plates were incubated at 33° C. in air containing 6% CO2 and 95% RH. The initial species identification was based on morphological, biological and cultural characteristics. The bacterial culture was tested for a catalase reaction (Leboffe, M. J and Pierce, B e (1999) A photographic atlas for the microbiology laboratory. Morton Publishing Company. 254 pp). The bacterial colonies were characterized by shape, margins and color. Gram-positive stained smears (Gram-stain Reagents Kit, EMD Chemicals Inc., NJ) were examined for morphological identification of vegetative cells and spores.
(§4) DNA based PCR identification was performed to corroborate identification of the bacterial species. Bacterial cells from culture plates were added directly to 30 μl of PCR reaction. The PCR primers used in the reaction were based on the 16S RNA sequence to selectively amplify a fragment of 973 by unique to P. larvae (Govan et al., 1999). The PCR products were visualized by 0.8% agarose gel electrophoresis in TAE buffer and ethidium bromide staining. The reference strains of bacteria were used as a control in PCR reactions and were provided by the National Center for Agricultural Research, Peoria, Ill. P. l. larvae (NRRL B-3560, B-2605) and P. l. palvifaciens (NRRL B-3688, B-3685, B-3689, NRS-1687, P. alvei B383).
(§5) Positive controls contained the antibiotic Tylosin (Tylan® 50, Elanco Animal Health Inc., IN) and negative controls contained no antibiotics. […] The optical densities of cultures (OD 600) were recorded 24 h and 48 h post inoculation, depending on the growth rate of the microbial species. […] Minimum bactericidal concentration values (NBC) were determined for allicin by plating out 100 μl of bacterial cultures derived from the MIC assay. […]
(In general: Dilution methods test growth across graded concentrations, often in twofold steps.)

The subject of assay [4] is Paenibacillus larvae subsp. larvae. Put plainly: MIC by broth microdilution, bee pathogens. The note with it: range 1000 ppm to 0.25 ppm.
From the text: as §2, §3, §4, §5

Structures are written as SMILES. Some results are limits rather than exact numbers.

As for `CC[C@H]1OC(=O)C[C@@H](O)[C@H](C)[C@@H](O[C@@H]2O[C@H](C)[C@@H](O[C@H]3C[C@@](C)(O)[C@@H](O)[C@H](C)O3)[C@H](N(C)C)[C@H]2O)[C@@H](CC=O)C[C@@H](C)C(=O)/C=C/C(C)=C/[C@@H]1CO[C@@H]1O[C@H](C)[C@@H](O)[C@@H](OC)[C@H]1OC` [tylosin, reference compound], the zone of inhibition in assay [1] is listed as 14-16 mm; with Ascosphaera apis it was 0.0 mm; in the assay with Ascosphaera aggregata it was 0.0 mm. The “growth inhibition in agar diffusion test” value in assay [2] is listed as “completely inhibited”. Also, the MIC in assay [3] and in assay [4] was below 0.25 µg/mL each time.
